In ChEMBL document CHEMBL1121542, “Beta-adrenergic blocking agents. 20. (3-Hydroxyprop-1-enyl)-substituted 1-(aryloxy)-3-(alkylamino)propan-2-ols” (J Med Chem, 1980):
The source made the active and inactive calls. The rule behind the calls is not given here.

Columns and labels:
[1] = biological target: Adrenergic receptor beta (Homo sapiens) (UniProt P08588+P07550+P13945); experiment: Compound was evaluated in vivo for beta-Adrenoceptor blocking potency in cat measured as the degree (percent) of blockade of the vasopressor response at the dose level; type: functional, organism-based; settings: Felis catus; target entry is the homologue from another species
Adrenergic receptor beta = experiment: Compound was evaluated in vivo for beta-Adrenoceptor blocking potency in cat and is expressed as total dose, infused over a period of 30 minutes, causing 50% inhibition of the tachycardia (iv administration); NA means not active; type: functional, organism-based; settings: Felis catus

| SMILES | Inhibition [1] [%] | Inhibition (Adrenergic receptor beta) |
| --- | --- | --- |
| CCOc1cc(/C=C/CO)ccc1OCC(O)CNC(C)C (stereo not given) |  | inactive |
| CC(C)NCC(O)COc1cc(/C=C/CO)ccc1Br (stereo not given) |  | inactive |

The next lines start with the values.

| Inhibition [1] [%] | Inhibition (Adrenergic receptor beta) | SMILES |
| --- | --- | --- |
| 76 |  | CC(C)(C)NCC(O)COc1ccc(/C=C/CO)cc1Cl (stereo not given) |
|  | inactive | COc1ccc(/C=C/CO)cc1OCC(O)CNC(C)C (stereo not given) |
|  | inactive | C=CCc1cc(/C=C/CO)ccc1OCC(O)CNC(C)(C)C (stereo not given) |
